This is an account of results in ChEMBL document CHEMBL3596144, “New Indole Tubulin Assembly Inhibitors Cause Stable Arrest of Mitotic Progression, Enhanced Stimulation of Natural Killer Cell Cytotoxic Activity, and Repression of Hedgehog-Dependent Cancer” (J Med Chem, 2015).

For data set [1], the system named is PC-3. Description: Cell cycle arrest in human PC3 cells assessed as accumulation at G2/M phase at 500 to 2000 nM after 24 hrs by propidium iodide staining-based flow cytometric analysis. It counts as functional. On the technique in general: A flow cytometer gives signals particle by particle.
Data set [2] deals with PC-3. Description: Induction of apoptosis in human PC3 cells after 48 hrs by propidium iodide/annexin V-FITC staining-based cytofluorometric analysis. Type of data set: functional, cell-based.
Data set [3] relates to HepG2. Description: Cell cycle arrest in human HepG2 cells assessed as accumulation at G2/M phase at 500 to 2000 nM after 24 hrs by propidium iodide staining-based flow cytometric analysis. Type of data set: functional.
The test system of data set [4] is RD. Description: Cell cycle arrest in human RD cells assessed as accumulation at G2/M phase at 500 to 2000 nM after 24 hrs by propidium iodide staining-based flow cytometric analysis. It counts as functional.
The test system of a further data set is NCI-H1975. Description: Cytotoxicity against human NCI-H1975 cells assessed as growth inhibition after 72 hrs by CellTiter-Fluor assay. It counts as functional, cell-based. As to conditions: NCI-H1975, 72 h.
The next data set has as its system OVCAR-8. Description: cells. As to conditions: Homo sapiens, OVCAR-8, 48 h.
For data set [5], the system named is RD. Description: Cytotoxicity against human RD cells assessed as growth inhibition after 48 hrs by MTT assay. Type of data set: functional, cell-based. A general note: Formazan colour is commonly taken as a measure of viable cells.
In data set [6] the test system is RD. Description: Induction of apoptosis in human RD cells at 500 nM after 48 hrs by propidium iodide/annexin V-FITC staining-based cytofluorometric analysis. It counts as functional, cell-based.
Data set [7] deals with HepG2. Description: Induction of apoptosis in human HepG2 cells after 48 hrs by propidium iodide/annexin V-FITC staining-based cytofluorometric analysis. Type of data set: functional, cell-based.
Data set [8] has as its target Protein smoothened (Mus musculus) (UniProt P56726). Description: Antagonist activity at smo receptor in mouse NIH3T3 Shh-Light II cells assessed as inhibition of SAG-induced hedgehog pathway after 48 hrs by dual luciferase reporter gene assay. It counts as cell-based. A general note: In a reporter assay the amount or activity of a reporter protein is the signal.
The next data set can be described thus: cells. As to conditions: Homo sapiens, NCI/ADR-RES, 48 h.
Data set [9] can be described thus: Intrinsic clearance in human liver microsomes assessed per mg of protein preincubated for 10 mins followed by NADP/Glc6P/G6P-DH addition by LC-MS/MS analysis. It counts as ADME. As to conditions: read-out: CLH.
Data set [10] in a line: Intrinsic clearance in mouse liver microsomes assessed per mg of protein preincubated for 10 mins followed by NADP/Glc6P/G6P-DH addition by LC-MS/MS analysis. It counts as ADME. The following applies: read-out: CLH.
In data set [11] the test system is HeLa. Description: Upregulation of NKG2D ligand expression in human HeLa cells after 48 hrs by immunofluorescence staining-based flow cytometric analysis. It counts as functional, cell-based.
The subject of data set [12] is HeLa. Description: Upregulation of DNAM1 ligand expression in human HeLa cells after 48 hrs by immunofluorescence staining-based flow cytometric analysis. Type of data set: functional, cell-based.
Data set [13] concerns HeLa. Description: Inhibition of microtubule polymerization in human HeLa cells assessed as appearance of tubulin foci and/or small asters of short microtubule fragments at 20 nM after 24 hrs by immunofluorescence staining-based microscopic analysis. Type of data set: cell-based.
The nature of data set [14]: Cytotoxicity against human MESSA/DX5 cells assessed as growth inhibition after 72 hrs by CellTiter-Glo assay. Type of data set: functional, cell-based. As to conditions: MES-SA/Dx5, 72 h.
The subject of data set [15] is PC-3. Description: cells. The following applies: Homo sapiens, PC-3, 48 h.
Description: Cytotoxicity against human PC3 cells assessed as growth inhibition after 48 hrs by MTT assay
The test system of data set [16] is HeLa. Description: Cell cycle arrest in human HeLa cells assessed as accumulation at G2/M phase at 20 nM after 24 hrs by propidium iodide staining-based flow cytometric analysis. It counts as functional.
In data set [17] the test system is HeLa. Description: Induction of apoptosis in human HeLa cells at 20 nM after 24 hrs by propidium iodide/annexin V-FITC staining-based cytofluorometric analysis. Type of data set: functional, cell-based.
Data set [18] has as its system HeLa. Description: Cell cycle arrest in human HeLa cells assessed as accumulation at sub-G1 phase at 20 nM after 24 hrs by propidium iodide staining-based flow cytometric analysis. Type of data set: functional.
Data set [19] can be described thus: Cytotoxicity against human MESSA cells assessed as growth inhibition after 72 hrs by CellTiter-Glo assay. Type of data set: functional, cell-based. As to conditions: MES-SA.

Structures are written as SMILES. Calls of active or inactive are those of the source. The calls are words filed in the database; no cut-off is given here.

Protein smoothened (Mus musculus), sequence (P56726 whole entry): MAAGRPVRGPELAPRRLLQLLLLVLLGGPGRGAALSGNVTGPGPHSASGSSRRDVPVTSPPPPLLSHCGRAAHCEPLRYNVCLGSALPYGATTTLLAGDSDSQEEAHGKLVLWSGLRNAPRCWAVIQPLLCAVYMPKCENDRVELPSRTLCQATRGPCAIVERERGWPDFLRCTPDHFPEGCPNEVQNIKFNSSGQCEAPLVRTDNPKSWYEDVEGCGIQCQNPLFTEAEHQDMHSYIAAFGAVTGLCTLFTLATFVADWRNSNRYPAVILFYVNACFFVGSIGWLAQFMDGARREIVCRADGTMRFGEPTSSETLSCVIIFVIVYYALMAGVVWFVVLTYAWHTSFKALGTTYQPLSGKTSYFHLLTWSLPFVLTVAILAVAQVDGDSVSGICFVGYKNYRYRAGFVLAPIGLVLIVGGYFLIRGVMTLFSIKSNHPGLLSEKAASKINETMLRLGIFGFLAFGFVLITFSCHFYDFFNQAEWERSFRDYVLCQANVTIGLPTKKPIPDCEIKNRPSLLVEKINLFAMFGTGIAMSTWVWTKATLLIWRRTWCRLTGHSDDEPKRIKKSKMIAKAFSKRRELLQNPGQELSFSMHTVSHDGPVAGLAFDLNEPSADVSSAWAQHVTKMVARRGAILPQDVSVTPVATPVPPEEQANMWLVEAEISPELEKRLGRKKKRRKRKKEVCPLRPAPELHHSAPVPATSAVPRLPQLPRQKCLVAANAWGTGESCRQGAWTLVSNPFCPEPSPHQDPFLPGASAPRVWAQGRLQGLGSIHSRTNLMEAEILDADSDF
Description for OVCAR-8: Cytotoxicity against human OVCAR8 cells assessed as growth inhibition after 48 hrs by SRB assay

The IC50 is the concentration that gives 50% inhibition. As for `CC(=O)O[C@H]1C(=O)[C@@]2(C)[C@H]([C@H](OC(=O)c3ccccc3)[C@]3(O)C[C@H](OC(=O)[C@H](O)[C@@H](NC(=O)c4ccccc4)c4ccccc4)C(C)=C1C3(C)C)[C@]1(OC(C)=O)CO[C@@H]1C[C@@H]2O` [PACLITAXEL], the outcome in the data set with PC-3 [1], in the data set on HepG2 [3], with RD [4] and in the data set on RD [6] was Active. Moreover, the Activity entry in the data set on PC-3 [2] and in the data set on HepG2 [7] was “Dose-dependent effect” throughout. Besides, the IC50 with NCI-H1975 was 2.5 nM; in the data set on OVCAR-8, 3.7 nM; with RD [5], more than 10000 nM.

Turning to `COc1cc(Sc2c(-n3ccnc3)[nH]c3ccccc23)cc(OC)c1OC`, the inhibition result in [8] is “Dose-dependent effect”.

In “cells”, `CCC1=C[C@@H]2CN(C1)Cc1c([nH]c3ccccc13)[C@@](C(=O)OC)(c1cc3c(cc1OC)N(C)[C@H]1[C@@](O)(C(=O)OC)[C@H](OC(C)=O)[C@]4(CC)C=CCN5CC[C@]31[C@@H]54)C2` [VINORELBINE] registered an IC50 of 5000 nM.

In the case of `COc1ccc2c(Sc3cc(OC)c(OC)c(OC)c3)c(-c3ccccc3)[nH]c2c1`, the inhibition entry in data set [8] is “Dose-dependent effect”.

Consider `COc1cc(Sc2c(-c3ccccc3)[nH]c3c(Cl)c(Cl)ccc23)cc(OC)c1OC`, for which the inhibition result in data set [8] was “Dose-dependent effect”.

Turning to `CCOc1ccc2ccc(=O)oc2c1` [ETHOXYCOUMARIN], the microsomal CLint was found to be 209 µL/min/mg in data set [9] and 711 µL/min/mg in data set [10].

`COc1cc(C(=O)c2ccn(-c3cccc(N)c3)c2)cc(OC)c1OC`: the result with HeLa [11] and with HeLa [12] was inactive.

Regarding `CC[C@]1(O)C[C@@H]2CN(CCc3c([nH]c4ccccc34)[C@@](C(=O)OC)(c3cc4c(cc3OC)N(C)[C@H]3[C@@](O)(C(=O)OC)[C@H](OC(C)=O)[C@]5(CC)C=CCN6CC[C@]43[C@@H]65)C2)C1` [VINBLASTINE], the IC50 was determined as 200 nM in the data set “cells”, 144 nM in [14], 766 nM in the data set with PC-3 [15] and 3 nM in [19]. Besides, the inhibition entry in the data set with HeLa [13] is “Active”. Besides, the Activity in the data set on HeLa [16] was more than 80%. Besides, the outcome in the data set on HeLa [17] and in the data set with HeLa [18] was Active.
